Drawing on patent US8940913B2, “Herbicides” (Syngenta Crop Protection, LLC, priority 2007, dated 2015), this text covers pest or weed control for four compounds.

Type in all cases: in vivo
The test system of assay [1] is Avena fatua (AVEFA). The experiment in a line: Post-emergence herbicidal activity, glasshouse pot test. The conditions noted are these: 360 h, rate 125 g/ha, evaluated 15 days later, 100=total damage to plant, 0=no damage to plant. As for the experimental part: (§1) Monocotyledonous and dicotyledonous test plants were sown in standard soil in pots. After cultivation for one day (pre-emergence) or after 10 days cultivation (post-emergence) under controlled conditions in a glasshouse, the plants were sprayed with an aqueous spray solution derived from the formulation of the technical active ingredient in 0.6 ml acetone and 45 ml formulation solution containing 10.6% Emulsogen EL (Registry number 61791-12-6), 42.2% N-methylpyrrolidone, 42.2% dipropylene glycol monomethyl ether (Registry number 34590-94-8) and 0.2% X-77 (Registry number 11097-66-8). The test plants were then grown in a greenhouse under optimum conditions until, 15 days later for post-emergence and 20 days for pre-emergence, the test was evaluated (100=total damage to plant; 0=no damage to plant). Test Plants: Alopecurus myosuroides (ALOMY), Avena fatua (AVEFA), Lolium perenne (LOLPE), Setaria faberi (SETFA), Digitaria sanguinalis (DIGSA), Echinochloa crus-galli (ECHCG)

Assay [2] deals with Lolium perenne (LOLPE). The description is as above. The conditions noted are these: 360 h, rate 125 g/ha, evaluated 15 days later, 100=total damage to plant, 0=no damage to plant. As for the experimental part: as §1
In assay [3] the test system is Echinochloa crus-galli (ECHCG). The description is as above. The conditions noted are these: 360 h, rate 125 g/ha, evaluated 15 days later, 100=total damage to plant, 0=no damage to plant. As for the experimental part: as §1
For assay [4], the system named is Setaria faberi (SETFA). The description is as above. The following applies: 360 h, rate 125 g/ha, evaluated 15 days later, 100=total damage to plant, 0=no damage to plant. How it is done: as §1
The subject of assay [5] is Alopecurus myosuroides (ALOMY). The assay is described as above. The conditions noted are these: 360 h, rate 125 g/ha, evaluated 15 days later, 100=total damage to plant, 0=no damage to plant. As for the experimental part:
as §1

For assay [6], the system named is Digitaria sanguinalis (DIGSA). The description is as above. The following applies: 360 h, rate 125 g/ha, evaluated 15 days later, 100=total damage to plant, 0=no damage to plant. As for the experimental part: as §1
For assay [7], the system named is Avena fatua (AVEFA). The experiment in a line: Pre-emergence herbicidal activity, glasshouse pot test. The following applies: 480 h, rate 250 g/ha, evaluated 20 days later, 100=total damage to plant, 0=no damage to plant. How it is done: as §1
Assay [8] concerns Lolium perenne (LOLPE). Described as above. The conditions noted are these: 480 h, rate 250 g/ha, evaluated 20 days later, 100=total damage to plant, 0=no damage to plant. As for the experimental part:
as §1

For assay [9], the system named is Echinochloa crus-galli (ECHCG). The description is as above. The following applies: 480 h, rate 250 g/ha, evaluated 20 days later, 100=total damage to plant, 0=no damage to plant. As for the experimental part: as §1
In assay [10] the test system is Setaria faberi (SETFA). The description is as above. The following applies: 480 h, rate 250 g/ha, evaluated 20 days later, 100=total damage to plant, 0=no damage to plant. How it is done: as §1
The test system of assay [11] is Alopecurus myosuroides (ALOMY). The description is as above. The following applies: 480 h, rate 250 g/ha, evaluated 20 days later, 100=total damage to plant, 0=no damage to plant. How it is done: as §1
Assay [12] concerns Digitaria sanguinalis (DIGSA). Described as above. The conditions noted are these: 480 h, rate 250 g/ha, evaluated 20 days later, 100=total damage to plant, 0=no damage to plant. As for the experimental part: as §1

SMILES strings stand for the structures.

On to `Cc1cc(-c2ccccc2)cc(C)c1C1=C(OC(=O)C(C)(C)C)[C@H]2[C@@H](C1=O)[C@@H]1CC[C@H]2O1` (racemic) [Compound P1, (1RS,2SR,6RS,7SR)-4-(3,5-dimethylbiphenyl-4-yl)-5-oxo-10-oxa-tricyclo[5.2.1.0^2,6]dec-3-en-3-yl 2,2-dimethylpropionate], for which the pest or weed control at 125 g/ha with Avena fatua (AVEFA) [1] worked out at 50%; with Lolium perenne (LOLPE) [2], 90%; in assay [3] it was 100%; with Setaria faberi (SETFA) [4] it was 80%; in [5], 100%; in assay [6] it was 80%. Further, the pest or weed control at 250 g/ha came out at 70% in the assay on Avena fatua (AVEFA) [7]; 100% with Lolium perenne (LOLPE) [8]; 100% in [9]; 90% with Setaria faberi (SETFA) [10]; 100% in assay [11]; 100% in assay [12].

Turning to `CCc1ccc(-c2ccc(Cl)cc2)cc1C1=C(O)[C@H]2[C@@H](C1=O)[C@@H]1C=C[C@H]2O1` (racemic) [Compound T4, (1RS,2SR,6RS,7SR)-4-(4′-chloro-4-ethylbiphen-3-yl)-10-oxatricyclo[5.2.1.0^2,6]dec-8-ene-3,5-dione], the pest or weed control at 125 g/ha in the assay with Avena fatua (AVEFA) [1] was 60%; with Lolium perenne (LOLPE) [2] it was 80%; in assay [3], 100%; in the assay with Setaria faberi (SETFA) [4] it was 100%; in [5], 80%; in assay [6], 100%. For the same compound, the pest or weed control at 250 g/ha in the assay with Avena fatua (AVEFA) [7] turned out to be 50%; in the assay on Lolium perenne (LOLPE) [8] it was 60%; in assay [9] it was 100%; in the assay with Setaria faberi (SETFA) [10], 100%; in assay [11], 60%; in assay [12], 100%.

On to `Cc1cc(-c2ccccc2)cc(C)c1C1C(=O)[C@@H]2[C@H](C1=O)[C@H]1CC[C@@H]2O1` (mixture of isomers) [Compound T6, (1RS,2SR,6RS,7SR)-4-(3,5-dimethylbiphen-4-yl)-10-oxa-tricyclo[5.2.1.0^2,6]decane-3,5-dione], for which the pest or weed control at 125 g/ha with Avena fatua (AVEFA) [1] was found to be 30%; with Lolium perenne (LOLPE) [2], 50%; in assay [3], 70%; with Setaria faberi (SETFA) [4] it was 60%; in [5], 80%; in [6], 30%. For the same compound, the pest or weed control at 250 g/ha in the assay on Avena fatua (AVEFA) [7] amounted to 0%; in the assay with Lolium perenne (LOLPE) [8] it was 70%; in [9], 100%; in the assay with Setaria faberi (SETFA) [10], 100%; in assay [11] it was 50%; in assay [12], 80%.

In the case of `CCc1ccc(-c2ccc(Cl)cc2Cl)cc1C1=C(O)[C@H]2[C@@H](C1=O)[C@@H]1CC[C@H]2O1` (racemic) [Compound T11, (1RS,2SR,6RS,7SR)-4-(2′,4′-dichloro-4-ethylbiphen-3-yl)-10-oxa-tricyclo[5.2.1.0^2,6]decane-3,5-dione], the pest or weed control at 125 g/ha in the assay with Avena fatua (AVEFA) [1] amounted to 90%; with Lolium perenne (LOLPE) [2] it was 50%; in assay [3] it was 100%; in the assay with Setaria faberi (SETFA) [4], 100%; in [5] it was 100%; in assay [6] it was 90%. Further, the pest or weed control at 250 g/ha with Avena fatua (AVEFA) [7] is 60%; with Lolium perenne (LOLPE) [8], 80%; in [9] it was 100%; with Setaria faberi (SETFA) [10], 100%; in assay [11] it was 70%; in assay [12], 90%.
